In patent US6358990B1, “Method for treating Alzheimer's disease” (Boehringer Mannheim Pharmaceuticals Corp., priority 1997, dated 2002):

System: IMR32 human neuroblastoma cells
Assay: Inhibition of the formation of toxic aggregates of beta-amyloid 1-40 peptide (MTT reduction in IMR32 cells)
Format: cell-based
Method: Determination of the Inhibition of the Formation of Toxic Aggregates of Beta-Amyloid 1-40 Peptide
Beta-amyloid (1-40) peptide from Bachem UK was dissolved in 0.1% acetic acid at 2 mg/ml and further diluted to 55 ug/ml in phosphate buffered saline (Sigma P4417) containing 0.02% Tween 20 (PBS-Tween). Candidate inhibitors were dissolved in DMSO at 10 mg/ml and further diluted in PBS-Tween. For each candidate inhibitor, 45 ul of 55 ug/ml peptide solution was incubated with 5 ul of appropriately diluted inhibitor overnight at 37° C. in Linbro Titertek EIA II shallow well plates (ICN, EIA II Microplates, cat no. 76-181-04). Plates were sealed with Dynatech Labs (cat # 001-010 3501) plate sealers.
MTT (3(4,5-dimethylthiazol-2-yl)-2,5-diphenyl tetrazolium bromide—Sigma) is a metabolic dye taken up by the mitochondria of viable cells and metabolised, yielding a blue formazan crystalline product. […]
For the assessment of toxicity, IMR32 human neuroblastoma cells (ECACC, Porton Down, UK) were plated at 6×10^4 cells/cm^2 in a 96 well microtitre plate (Nunc) in a volume of 100 ul growth medium (DMEM:Hams F12 1:1) per well and incubated for 2 h (CO2 incubator, 37° C.). […] Plates were read at 590 nm and inhibition of toxicity assessed as the difference in OD reading between cells in the presence and absence of candidate inhibitors. […]

COc1ccccc1OCCNCC(O)COc1cccc2[nH]c3ccccc3c12 (centres unmarked) [carvedilol]
shift of the beta-amyloid 1-40 concentration-response curve (decrease in MTT reduction) (50 ug/ml beta-amyloid 1-40 incubated overnight with 50 ug/ml carvedilol, cells challenged with 0 to 10 ng/ml beta-amyloid 1-40): marked shift to the right
decrease in MTT reduction (50 ug/ml carvedilol during the aggregation step, 0.1 to 1 ng/ml of peptide on IMR32 cells): no decrease in MTT reduction was observed
